This is an account of results in patent US11685713B2, “Small molecule SHC blockers used for treating liver disease and metabolic disease” (Buto Corporation, priority 2019, dated 2023).

For experiment [1], the system named is Corticosterone model of Insulin resistance. Kind of experiment: Glucose Tolerance Test in the Corticosterone model of Insulin resistance. It counts as in vivo, mice. As to conditions: for glucose tolerizing effect in the Corticosteroid model: FIG. 3, summary in Example 1E; for GTT: glucose intolerance at time points after glucose administration / GTT Area Under the Curve (AUC): glucose intolerance relative to placebo: mice, corticosterone 21 days, 10 mg/kg i.p. for the final 5 days; for GTT: glucose intolerance at time points after glucose administration: FIG. 3 A/B; for GTT Area Under the Curve (AUC): glucose intolerance relative to placebo: FIG. 3 C. The procedure:
In a standard model of glucose intolerance and insulin insensitivity, corticosterone (CS) was dosed for 21 days, and in the drug treated group mice were administered Shc Blocker #3=RTX60933293 or #5=RTX73145433 at a dose of 10 mg/kg i.p. for the final 5 days of the 21-day CS treatment. […] By blocking the interaction of Shc protein with phosphotyrosines on the Insulin Receptor, a Shc blocker redirects more signaling to the insulin-sensitizing and glucose tolerizing phospho-Akt. Thus, peripheral cells become more sensitive per molecule insulin, and consequently more glucose tolerant. This prediction is borne out in the Corticosteroid model. Corticosterone is a known model of Type 2 Diabetes and Metabolic Syndrome, as Corticosterone induces peripheral insulin insensitivity.

Experiment [2] relates to Methionine Choline-Deficient (MCD) Mouse model NASH. The experiment is described as follows: Liver fibrosis markers in the MCD model of Non-alcoholic Steatohepatitis (NASH). Type of experiment: in vivo. As to conditions: mice, MCD 8 weeks, 20 mg/kg orally the last 4 weeks, vs placebo. As for the experimental part:
Mice were fed the Liver fibrosis-inducing Methionine Choline-Deficient (MCD) Mouse model NASH for 8 weeks, and the last 4 weeks they were dosed orally with 20 mg/kg of compound number 3 (RTX60933293), compound number 5 (RTX73145433), or placebo. After 8 weeks of MCD dosing, mice were sacrificed, and livers were extracted for nucleic acids and classical markers of liver fibrosis were assayed by QRTPCR.
Without wishing to be bound by theory, NASH could be considered the next-most common metabolic disturbance after Type 2 Diabetes in the USA, and currently has no approved treatment. There is a usual progression from NAFLD (fatty liver) to the more fibrotic/cirrhotic NASH. While the precise mechanism of the transition of NAFLD to NASH is not completely understood, hepatocyte death and resulting fibrosis has been proposed. Fibrosis and fibrotic scarring are thought to be the most important pathophysiological endpoints to end-stage NASH, which typically necessitates an expensive and difficult liver transplant. As shown in other examples, Shc blockers through their sensitization to insulin, IGF-1 and other growth factors, are cytoprotective. Thus, by inhibiting hepatocyte death which promotes fibrosis, they should also be anti-fibrotic.

The test system is the same in experiment [3]. Described as above. It counts as in vivo. As to conditions: mice, MCD 8 weeks, 20 mg/kg orally the last 4 weeks, vs placebo. The source holds these as a separate data set.

For `O=C(NCCS(=O)(=O)Cc1ccccc1)N1CC=C(c2cccc3ccccc23)C1` [Compound 3], in experiment [1], the “glucose tolerizing effect in the Corticosteroid model” value is on record as “significantly glucose tolerizing”, the “GTT: glucose intolerance at time points after glucose administration” value is “reduced glucose intolerance significantly at 4 time points” and the “GTT Area Under the Curve (AUC): glucose intolerance relative to placebo” value is given as “significantly reduced glucose intolerance”. Besides, in experiment [2], the “Collagen 1a1 (Col1), liver, QRTPCR” value is “significantly reduced”; the “Matrix Metalloproteinase 2 (MMP2), liver, QRTPCR” value is listed as “significantly reduced”; the “Tissue metallopeptidase inhibitor 1 (TIMP1), liver, QRTPCR” value is “significantly reduced”; the “Transforming Growth Factor beta (TGF-b), liver, QRTPCR” value is on record as “significantly reduced”. Besides, the “alpha-smooth muscle actin (aSMA), liver, QRTPCR” value in experiment [2] is recorded as “significantly reduced”. Moreover, the “liver fibrosis bio marker hydroxyproline” value in experiment [3] is recorded as “significantly reduced”.

For the molecule `O=C(c1cccc(-n2cccc2)c1)N1CCOC(c2cccc(OC(F)F)c2)C1` (stereo not drawn) [Compound 5], in experiment [1], the “glucose tolerizing effect in the Corticosteroid model” value is listed as “significantly glucose tolerizing”, the “GTT: glucose intolerance at time points after glucose administration” value is on record as “reduced glucose significantly at 2 time points” and the “GTT Area Under the Curve (AUC): glucose intolerance relative to placebo” value is “significantly reduced glucose intolerance”. In addition, in experiment [2], the “Collagen 1a1 (Col1), liver, QRTPCR” value was “significantly reduced”; the “Matrix Metalloproteinase 2 (MMP2), liver, QRTPCR” value is “significantly reduced”; the “Tissue metallopeptidase inhibitor 1 (TIMP1), liver, QRTPCR” value is “significantly reduced”; the “Transforming Growth Factor beta (TGF-b), liver, QRTPCR” value was “significantly reduced”. The “alpha-smooth muscle actin (aSMA), liver, QRTPCR” value in experiment [2] is “significantly reduced”. Further, the “liver fibrosis bio marker hydroxyproline” value in experiment [3] is recorded as “significantly reduced”.
